In paper PMC12257542, “A Radiolabeled Photoswitchable G Protein-Coupled Receptor Antagonist Enlightens Ligand Binding Kinetics Associated with Photoswitching” (Journal of the American Chemical Society, 2025):
Where “and” joins values, the source holds several entries; their conditions need not be identical. Equal values may be shown once.

Legend:
[1] = UV-vis spectra of trans and PSS cis states in HBSS buffer; type: physicochemical; conditions: 25 μM in HBSS buffer containing 1% DMSO
Experimental: (§1) Experimental procedures – Photochemistry
UV−Vis spectra were recorded using a Thermo-scientific Evolution 201 PC spectrophotometer equipped with a thermostated cell holder set at 20 °C. Fits of UV−vis spectroscopy data were generated using Prism 10.1.0. Illumination for almost all photochemical experiments was executed using a Sutter instruments Lambda LS with a 300 W full-spectrum lamp connected to a Sutter instruments Lambda 10-3 optical filter changer equipped with 360 ± 10 nm, 434 ± 9 nm 494 ± 9 nm, or a Lambda 721 optical beam combiner system equipped with 365 ± 11 nm and 506 ± 14 nm filter. The light intensity used for the lambda 10-3 optical filter is 0.93 mW/mm2 using the 360 ± 20 nm filter, 0.79 mW/mm2 for the 434 ± 9 nm filter, 0.77 mW/mm2 for the 494 ± 9 nm filter as measured using a Thorlabs PM16−401 power meter. The light intensity used for the lambda 721 optical beam combiner is 200 mW using the 365 ± 11 nm filter and 60 mW for the 506 ± 12 nm filter. For photochemical analyses, illuminations were performed in Hellma Suprasil quartz 114QS cuvettes. For the dynamic illuminations, a 4-way cuvette holder (Avantes) was used. The left outlet of the holder is connected to an Avantes AvaLight-DH-S-BAL Deuterium lamp. The right outlet is connected through a fiber to an AvaSpec UV/Vis spectrometer. The lower outlet is connected to a Lambda 721 optical beam combiner system equipped with 365 ± 11 nm and 506 ± 14 nm filter illumination means. The upper outlet is covered with a black cap. The temperature of the solution in the cuvette (20 °C) is controlled by Q-blue Wireless Temperature Control software. […]
The typical distance […]
between light source and vial or cuvette was 2 cm.

[2] = Thermal relaxation of PSS cis states (Arrhenius extrapolation); type: physicochemical; conditions: approximate; HBSS buffer + 1% DMSO, extrapolated to 20 °C
Experimental: as §1
UV−Vis spectra were recorded using a Thermo-scientific Evolution 201 PC spectrophotometer equipped with a thermostated cell holder set at 20 °C. Fits of UV−vis spectroscopy data were generated using Prism 10.1.0. Illumination for almost all photochemical experiments was executed using a Sutter instruments Lambda LS with a 300 W full-spectrum lamp connected to a Sutter instruments Lambda 10-3 optical filter changer equipped with 360 ± 10 nm, 434 ± 9 nm 494 ± 9 nm, or a Lambda 721 optical beam combiner system equipped with 365 ± 11 nm and 506 ± 14 nm filter. The light intensity used for the lambda 10-3 optical filter is 0.93 mW/mm2 using the 360 ± 20 nm filter, 0.79 mW/mm2 for the 434 ± 9 nm filter, 0.77 mW/mm2 for the 494 ± 9 nm filter as measured using a Thorlabs PM16−401 power meter. The light intensity used for the lambda 721 optical beam combiner is 200 mW using the 365 ± 11 nm filter and 60 mW for the 506 ± 12 nm filter. For photochemical analyses, illuminations were performed in Hellma Suprasil quartz 114QS cuvettes. For the dynamic illuminations, a 4-way cuvette holder (Avantes) was used. The left outlet of the holder is connected to an Avantes AvaLight-DH-S-BAL Deuterium lamp. The right outlet is connected through a fiber to an AvaSpec UV/Vis spectrometer. The lower outlet is connected to a Lambda 721 optical beam combiner system equipped with 365 ± 11 nm and 506 ± 14 nm filter illumination means. The upper outlet is covered with a black cap. The temperature of the solution in the cuvette (20 °C) is controlled by Q-blue Wireless Temperature Control software.
Thermal relaxation experiments and Arrhenius extrapolations were performed according to Priimagi et al20, using a compound concentration of 25 μM in HBSS +1% DMSO and temperatures of 50, 60, and 70 °C. Illuminations for pharmacological experiments were performed in cylindrical clear glass vials with a volume of 4.5 mL. The typical distance between light source and vial or cuvette was 2 cm.

[3] = Nephelometry (qualitative solubility comparison); type: physicochemical; conditions: trans state for VUF14862, either state for 3f
H3R = H3R (Homo sapiens, UniProt Q9Y5N1); test: [3H]NAMH competition radioligand binding on cell homogenates overexpressing H3R; conditions: for Ki: [3H]NAMH competition, n = 3
Chain of H3R (Q9Y5N1 whole entry): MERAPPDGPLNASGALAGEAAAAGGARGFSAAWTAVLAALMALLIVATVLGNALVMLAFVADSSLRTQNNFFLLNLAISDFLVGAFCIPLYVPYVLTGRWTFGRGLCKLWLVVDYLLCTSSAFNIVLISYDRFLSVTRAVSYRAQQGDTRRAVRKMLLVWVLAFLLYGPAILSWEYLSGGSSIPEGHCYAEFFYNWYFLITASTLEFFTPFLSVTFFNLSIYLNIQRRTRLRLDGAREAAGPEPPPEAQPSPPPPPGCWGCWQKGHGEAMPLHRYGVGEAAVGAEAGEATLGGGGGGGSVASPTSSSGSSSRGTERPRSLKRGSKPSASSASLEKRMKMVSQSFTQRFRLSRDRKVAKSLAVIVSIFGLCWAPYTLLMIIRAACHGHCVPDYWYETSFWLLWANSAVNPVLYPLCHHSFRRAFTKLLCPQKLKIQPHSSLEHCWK

H4R = biological target: T1, H4R (Homo sapiens, UniProt Q9H3N8); test: Histamine receptor selectivity binding, [3H]histamine competition on cell homogenates expressing H4R; conditions: trans isomer; at concentrations lower than 1 μM; competition with [3H]histamine
T1 construct: HA; expressed in transfected cells; host or cells: HEK293T, transient transfection (pcDEF3), cell homogenates

- λmax cis [1]: 439 nm
- λmax trans [1]: 348 nm
- Half-life (thermal relaxation of PSS cis state) [2]: 13 days
- concentrations with tendency to aggregate/precipitate [3]: not observed
- Fold Ki shift (H3R; (high-affinity state)/(low-affinity state), ↓ lower affinity of PSS cis state than trans): 50 fold and 50.1 ↓ fold
- Ki (H3R; pKi PSScis ± SEM, PSS cis state): 25.1 nM
- Ki (H3R; pKi trans ± SEM, trans isomer): 0.501 nM
- binding to H4R (H4R): does not bind
Structure (SMILES): Cc1nn(C2CCN(C)CC2)c(C)c1/N=N/c1ccc(O[C@H]2C[C@H](N3CCCCC3)C2)cc1 [Compound 3f]
